This note sets out measurements from patent publication US20020016384A1, “Hydrolysis-stable and polymerizable acrylophosphonic acid” (Ivoclar Vivadent AG., priority 2000, published 2002).

Data set [1] in a line: Investigation of the solubility in water and organic solvents. Format: physicochemical. From the text:
The solubility of monomers 3 and 5 and of a comparison monomer (comparison monomer 2; X=COO, Z=H) in water, ethanol, acetone, methylene chloride and ethyl acetate was investigated.
Solubility: ++: very good (>20 wt.-%), +: good (10-20 wt.-%), 0: practically insoluble (<1 wt.-%). [drawing 25]

A short description of data set [2]: Investigation of the hydrolytic stability by 1H-NMR. The following applies: 20% solution in 1:1 water/ethanol; for change in the 1H-NMR spectrum (hydrolytic stability): stored at 37° C., 12-week investigation period, spectrum recorded weekly. Format: physicochemical. The method, then:
Monomers 3 and 5 are each dissolved in a 1:1 mixture of water and ethanol and stored as 20% solution at 37° C. The ^1H-NMR spectrum of the solution is recorded weekly.

Regarding `C=C(COCCP(=O)(O)O)C(=O)O` [Comparison monomer 2, reference compound], in data set [1], the Solubility in acetone was 0 (practically insoluble (<1 wt.-%)), the Solubility in ethanol is 0 (practically insoluble (<1 wt.-%)), the “Solubility in ethyl acetate” value is reported as 0 (practically insoluble (<1 wt.-%)) and the “Solubility in methylene chloride” value is 0 (practically insoluble (<1 wt.-%)). Moreover, the Solubility in water entry in data set [1] is on record as “++ (very good (>20 wt.-%))”.
`C=C(COCCP(=O)(O)O)C(=O)N(CC)CC` [Monomer 3, 2-[4-(dihydroxyphosphoryl)-2-oxabutyl]-acrylic acid diethylamide]: in data set [2], the “change in the 1H-NMR spectrum (hydrolytic stability)” value is given as “no change in the spectrum”. In data set [1], the Solubility in acetone result is recorded as “++ (very good (>20 wt.-%))”, the Solubility in ethanol result is recorded as “++ (very good (>20 wt.-%))”, the “Solubility in ethyl acetate” value was “++ (very good (>20 wt.-%))” and the “Solubility in methylene chloride” value is reported as “++ (very good (>20 wt.-%))”. In addition, the Solubility in water entry in data set [1] was “++ (very good (>20 wt.-%))”.
`C=C(C#N)COCCP(=O)(O)O` [Monomer 5, 2-[4-(dihydroxyphosphoryl)-2-oxabutyl]-acrylonitrile]: in data set [2], the “change in the 1H-NMR spectrum (hydrolytic stability)” value was “no change in the spectrum”. In data set [1], the Solubility in acetone entry was “++ (very good (>20 wt.-%))”, the Solubility in ethanol entry is listed as “++ (very good (>20 wt.-%))”, the “Solubility in ethyl acetate” value is reported as “++ (very good (>20 wt.-%))” and the “Solubility in methylene chloride” value is listed as “++ (very good (>20 wt.-%))”. Also, the Solubility in water entry in data set [1] is “++ (very good (>20 wt.-%))”.
On to `C=C(COCCP(=O)(OC)OC)C(=O)OCC` [comparison monomer 1, 2-[4-(dimethoxyphosphoryl)-2-oxa-butyl]-acrylic acid ethyl ester, reference compound], for which the “hydrolytic elimination of the ethoxy group” value in data set [2] (37° C., after 3 months, 1H-NMR) is reported as 20%.
